Test results: patent US20230201235A1, “INHIBITION OF NIDOVIRUSES THAT ENCODE NSP15” (The University of Chicago, priority 2020, published 2023)

Experiments:
SARS-CoV-2 Nsp15 [1] = target: T1, SARS-CoV-2 Nsp15 (Severe acute respiratory syndrome coronavirus 2, UniProt P0DTD1); type: binding; details: co-crystal structures, Table 1
Nsp15 [2] = target: T2, Nsp15 (Severe acute respiratory syndrome coronavirus 2, UniProt P0DTD1); assay: Nsp15 differential scanning fluorimetry (DSF) assay; type: binding; details: 10 μM Nsp15, 1 mM ligand, 10 mM MnCl2; for melting temperature (Tm) of Nsp15 in presence of ligand: same Tm as control
Experimental: The Nsp15 differential scanning fluorimetry (DSF) assays were performed in a buffer 20 mM Tris pH 7.5, 100 mM NaCl, 1 mM TCEP that was supplemented with SYPRO™ Orange protein gel stain (Invitrogen, Carlsbad, Calif.) to 5× final concentration. 10 μM of the Nsp15 was used with the addition of each of 1 mM of tipiracil, 5′GpU, 5′UMP, 3′UMP, and TMP to get final molar ratio of protein to ligand 1:100. Additionally, the samples with ligands were supplemented with 10 mM MnCl2. After 30 min of incubation of samples at room-temperature, fluorescence measurements were done using CFX CONNECT™ Real-Time System (BioRad, Hercules, Calif.). Fluorescent signal was detected with temperature rate 1° C. per 60 sec. Samples were measured in triplicate, and the representative standard deviation of measurements are depicted for Nsp15 control sample and complex of the Nsp15 with addition of tipiracil.

Nsp15 [3] = target: T2, Nsp15; assay: Fluorescence-based endoribonuclease assay; type: biochemical, SARS-CoV-2
Experimental: The oligonucleotide dArUdAdA with 5′-6-FAM and 3′-6-TAMRA was synthetized by GenScript Biotech (Piscataway, N.J.). The concentration of 0.5 μM substrate was used with 2 μM Nsp15 in a buffer containing 20 mM HEPES at pH 7.8, 100 mM NaCl, and 5 mM MnCl2. Detection of the emission of FAM fluorescence signal was done on CFX CONNECT™ Real-Time System (Bio-Rad Laboratories, Hercules, Calif.).
Cleavage of oligonucleotide dArUdAdA with 5′-6-FAM and 3′-6-TAMRA substrate was tested using polyacrylamide gel electrophoresis. The concentration of labeled substrate was […], and the Nsp15 concentration varied to achieve different molar ratios of substrate to Nsp15. Samples were mixed in a buffer with 20 mM HEPES at pH 7.8, 100 mM NaCl, and 5 mM MnCl2. After 10 minutes of incubation, samples were loaded on NUPAGE Tris-Acetate 3-8% gel, and the electrophoresis was done on 80 V for 1 h. The detection of FAM emission on gel was performed using the Gel DOC™ EZ System (Bio-Rad Laboratories, Hercules, Calif.).

SARS-CoV-2 = assay: Whole cell assays: spike protein immunostaining and viral RNA qRT-PCR; type: cell-based
A549-hACE2 cells = details: 1-50 μM
SARS-CoV-2 Nsp15 [4] = target: T1, SARS-CoV-2 Nsp15; assay: Radioactivity-based endoribonuclease assay; type: biochemical

Molecule | binding to the active site of Nsp15 in the crystal structure (SARS-CoV-2 Nsp15 [1]) | melting temperature (Tm) of Nsp15 in presence of ligand (Nsp15 [2]) | shift of Nsp15 denaturation profile to higher temperatures (Nsp15 [2]; versus control) [°C] | IC50 (Nsp15 [3]) [µM] | inhibition of virus (spike protein and RNA expression) (SARS-CoV-2) | effect on viability of cells (A549-hACE2 cells) | IC50 (SARS-CoV-2 Nsp15 [4]) [µM] | inhibition of cleavage reaction at higher Mn2+ concentration (SARS-CoV-2 Nsp15 [4]; octamer RNA, higher Mn2+ ion concentration (15 mM MnCl2))
N=C1CCCN1Cc1[nH]c(=O)[nH]c(=O)c1Cl [tipiracil, 5-chloro-6-[(2-imino-1-pyrrolidinyl)methyl]-2,4(1H,3H)-pyrimidinedione] | binds directly in the active site of Nsp15 | approximately 60.5 °C | 0.5 | 72 | modest | did not affect the viability of cells | 7.5 | no inhibition
O=c1ccn([C@@H]2O[C@H](CO)[C@@H](OP(=O)(O)O)[C@H]2O)c(=O)[nH]1 [3′UMP, 3′-uridylic acid] | binds directly in the active site of Nsp15 | approximately 60.5 °C | – | – | – | – | – | –
Cc1cn([C@H]2C[C@H](OP(=O)(O)O)[C@@H](CO)O2)c(=O)[nH]c1=O [3′TMP] | – | approximately 60.5 °C | – | – | – | – | – | –
uridine 2′,3′-vanadate [UV] | binds directly in the active site of Nsp15 | – | – | – | – | – | – | –
O=c1ccn([C@@H]2O[C@H](COP(=O)(O)O)[C@@H](O)[C@H]2O)c(=O)[nH]1 [5′UMP, 5′-uridylic acid] | binds directly in the active site of Nsp15 | approximately 60.5 °C | – | – | – | – | – | –
